From the supplement of paper PMC12533247

How the values were obtained:
[1] = test system: HSV-1 K26-GFP infected primary human skin cells; assay: % change of HSV-1 GFP signal vs untreated infected cells; higher = less antiviral inhibition; settings: cell type: primary dermal fibroblasts, time (h post infection): 48
Method: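 2D primary donor-derived dermal fibroblasts infected with GFP-HSV-1 K26 at MOI 1, treated 1 h later with compound dilutions and read at 48 hpi on IncuCyte. GFP integrated intensity is normalised to mock-infected and untreated infected wells (% change; -100 = full inhibition).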

[2] = test system: HSV-1 K26-GFP infected 3D skin equivalent; assay: % activity on HSV-1 GFP signal (0 = infected DMSO control, -100 = uninfected control); higher = higher signal (negative = inhibition / toxicity); settings: time (h post infection): 48
Method: (§1)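 Triplicate dose-response (0.04 to 10 uM) of 11 top compounds in 3D bioprinted skin equivalents (submerged and ALI models) infected with GFP-HSV-1 K26 at MOI 0.1 and fixed at 48 hpi. GFP (virus) and tdTomato (fibroblast viability) signals are normalised to per-plate controls.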

[3] = test system: HSV-1 K26-GFP infected 3D skin equivalent; assay: % change of tdTomato fibroblast signal relative to infected DMSO control; higher = higher signal (negative = inhibition / toxicity); settings: time (h post infection): 48
Method: as §1

[4] = test system: HSV-1 K26-GFP infected primary human skin cells; assay: % change of HSV-1 GFP signal vs untreated infected cells; higher = less antiviral inhibition
Method: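 2D primary donor-derived keratinocytes (read at 20 hpi) and donor-matched dermal fibroblasts (read at 48 hpi) infected with GFP-HSV-1 K26 at MOI 1 and treated 1 h later with compound dilutions. IncuCyte GFP integrated intensity is normalised by subtracting mock-infected wells and dividing by untreated infected wells, shown as % change (-100 = full inhibition).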

CC(C)c1cnn2c(NCc3ccccc3-n3cccn3)nc(OC3CCCNC3)nc12 (configuration not stated) [LDC4297]
Settings | % activity on HSV-1 GFP signal [%] | % change of HSV-1 GFP signal [%] | % change of tdTomato fibroblast signal [%]
[1], 0.003 µM, donor: 3 | – | 20.9 | –
[1], 0.0091 µM, donor: 3 | – | 21.8 | –
[1], 0.0091 µM, donor: 4 | – | 2.39 | –
[1], 0.0274 µM, donor: 3 | – | 21.6 | –
[1], 0.0274 µM, donor: 4 | – | 1.27 | –
[1], 0.0823 µM, donor: 3 | – | 14.2 | –
[1], 0.0823 µM, donor: 4 | – | -5.21 | –
[1], 0.2469 µM, donor: 3 | – | -5.39 | –
[1], 0.2469 µM, donor: 4 | – | -24 | –
[1], 0.7407 µM, donor: 3 | – | -27.1 | –
[1], 0.7407 µM, donor: 4 | – | -34.7 | –
[1], 2.2222 µM, donor: 3 | – | -57.2 | –
[1], 2.2222 µM, donor: 4 | – | -53.3 | –
[1], 6.6667 µM, donor: 3 | – | -98.3 | –
[1], 6.6667 µM, donor: 4 | – | -92.4 | –
[1], 20 µM, donor: 3 | – | -100.3 | –
[1], 20 µM, donor: 4 | – | -99.916 | –
[1], 60 µM, donor: 3 | – | -100.3 | –
[1], 60 µM, donor: 4 | – | -99.83 | –
[2], 0.041152 µM, model: ALI | -23.3 | – | –
[2], 0.041152 µM, model: submerged | -10.7 | – | –
[2], 0.123457 µM, model: ALI | -67.2 | – | –
[2], 0.123457 µM, model: submerged | -16.1 | – | –
[2], 0.37037 µM, model: ALI | -88.4 | – | –
[2], 0.37037 µM, model: submerged | -44.7 | – | –
[2], 1.111111 µM, model: ALI | -99.9 | – | –
[2], 1.111111 µM, model: submerged | -54.4 | – | –
[2], 3.33333 µM, model: ALI | -105 | – | –
[2], 3.33333 µM, model: submerged | -74.5 | – | –
[2], 10 µM, model: ALI | -99.9 | – | –
[2], 10 µM, model: submerged | -94.8 | – | –
[3], 0.041152 µM, model: ALI | – | – | -1.16
[3], 0.041152 µM, model: submerged | – | – | 7.31
[3], 0.123457 µM, model: ALI | – | – | -6.21
[3], 0.123457 µM, model: submerged | – | – | -0.0281
[3], 0.37037 µM, model: ALI | – | – | -7.32
[3], 0.37037 µM, model: submerged | – | – | -5.4
[3], 1.111111 µM, model: ALI | – | – | -9.38
[3], 1.111111 µM, model: submerged | – | – | 8.7
[3], 3.33333 µM, model: ALI | – | – | -3.18
[3], 3.33333 µM, model: submerged | – | – | 7.79
[3], 10 µM, model: ALI | – | – | 1.92
[3], 10 µM, model: submerged | – | – | -14.8

% change of HSV-1 GFP signal [%], [4]
Settings | 0.003 µM | 0.0091 µM | 0.0274 µM | 0.0823 µM | 0.2469 µM | 0.7407 µM | 2.2222 µM | 6.6667 µM | 20 µM | 60 µM
cell type: primary dermal fibroblasts, donor: 5, time (h post infection): 48 | -4.88 | -5.58 | -6.29 | -17.5 | -44.9 | -60.2 | -78.8 | -97.65 | -99.964 | -99.913
cell type: primary keratinocytes, donor: 3, time (h post infection): 20 | -0.466 | 9.74 | -1.73 | 2.24 | -13.6 | -24.8 | -42.6 | -99.02 | -99.87 | -99.984
cell type: primary keratinocytes, donor: 4, time (h post infection): 20 | -19.1 | -22.2 | -23.4 | -17.1 | -35.8 | -61 | -75.3 | -99.7 | -99.973 | -100.04
cell type: primary keratinocytes, donor: 5, time (h post infection): 20 | – | 7.64 | 1.09 | 0.186 | -10 | -17.4 | -37.8 | -99.64 | -99.946 | -99.969
